# Measured values reported in publication PMC11357992, “Non-invasive mapping of systemic neutrophil dynamics upon cardiovascular injury” (Nature Cardiovascular Research, 2023).
# Values joined by “and” are separate entries in the source; they are usually repeats but may differ in a detail not shown here. Equal values may be shown once. Where no end group is shown, it is not given here. Side-chain parts run from the residue outwards. rhodamine‑labelled PEGylated perfluoro‑15‑crown‑5 ether nanoemulsion = not defined here; carboxyfluorescein = N-terminal fluorescence label (CF)
# Experiments:
# human neutrophils = assay: 1H/19F MRI of human neutrophils incubated with hNPPFCs/ConPFCs (healthy and STEMI); assay type: cell-based; conditions: versus ConPFC controls
# Experimental: After the incubation period, cells were subjected to density gradient centrifugation to separate PFC-loaded cells from free PFCs. Afterward, samples were analyzed by MRI to determine the ^19F signal within the cell layer as described previously.
# To determine PFC uptake by human neutrophils by ^19F MRI, cells were isolated from 10 ml of whole blood by density centrifugation. Subsequently, neutrophils (5 × 10^6) were resuspended in 3 ml DMEM and incubated for up to 8 h at 37 °C under constant motion with 10 µl ^hNPPFCs. Afterward, cells were centrifuged at 350g, washed three times with PBS, resuspended in 1 ml MACS buffer, purified by Percoll gradient centrifugation and analyzed by ^1H/^19F MRI.
# bone marrow neutrophils = assay: In vivo mNPPFC labeling of bone marrow neutrophils after Matrigel-LPS, 1H/19F MRI; parameters: species or system mouse; conditions: individual experiments; for total amount of 19F in the bone marrow (1H/19F MRI): mNPPFCs 1 mmol per kg BW i.v. 24 h after implantation, MRI another 24 h later; for 19F signal normalized to the number of neutrophils in the bone marrow: neutrophil number by flow cytometry directly after MRI
# Experimental: To induce defined inflammatory foci, we adopted a recently developed model of localized subcutaneous inflammation. To this end, ice-cold Matrigel (Corning) was doped with LPS (1 µg µl^−1; Salmonella typhimurium, Sigma-Aldrich) and subcutaneously (s.c.) implanted into the neck of the mice. Twenty-four hours after implanting the plug, neutrophils were isolated from the blood and incubated ex vivo with ^mNPPFCs or ^ConPFCs. In separate experiments, 24 h after implantation, ^mNPPFCs or ^ConPFCs were injected intravenously, and immune cells were isolated from the blood. In further experiments, 1 d after plug injection, mice received 1 mmol per kg BW ^mNPPFCs, and, 24 h later, the bone marrow was analyzed by ^1H/^19F MRI. Thereafter, mice were killed, and neutrophils were isolated from the bone marrow for determination of cell numbers. In each case, immune cells were analyzed by flow cytometry.
# Slice packages were placed in sagittal orientation to cover the complete bone marrow in the tibia and femur in both legs using the following scan details: ^1H RARE, TR = 2,000 ms, FOV = 4.00 × 2.56 cm^2, matrix = 256 × 256, ST = 1 mm, tAcq = 1 min; ^19F RARE, TR = 2,500 ms, FOV = 4.00 × 2.56 cm^2, matrix = 64 × 64, ST = 3 mm, tAcq = 10 min.
Substance,19F signal of human neutrophils exposed to PFCs (1H/19F MRI) (human neutrophils),total amount of 19F in the bone marrow (1H/19F MRI) (bone marrow neutrophils; Ctrl: Matrigel-PBS plug),19F signal normalized to the number of neutrophils in the bone marrow (bone marrow neutrophils; Ctrl: Matrigel-PBS plug),total amount of 19F in the bone marrow (1H/19F MRI) (bone marrow neutrophils; LPS: Matrigel-LPS plug),19F signal normalized to the number of neutrophils in the bone marrow (bone marrow neutrophils; LPS: Matrigel-LPS plug)
hNPPFCs: PEGylated rhodamine-labeled perfluorocarbon nanoemulsion coupled with human neutrophil-specific peptide hNP (carboxyfluorescein-DLVTSKLQVGGGC; also: C-terminal Cys coupled via maleimide-PEG2000-DSPE to rhodamine-labelled perfluorocarbon nanoemulsion),significantly stronger,–,–,–,–
mNPPFCs: PEGylated rhodamine-labeled perfluoro-15-crown-5 ether nanoemulsion (maleimide PFCs) coupled with murine neutrophil-specific peptide mNP (carboxyfluorescein-DFYKPMPNLRITGGGC([maleimide‑PEG2000‑DSPE-rhodamine‑labelled PEGylated perfluoro‑15‑crown‑5 ether nanoemulsion]); reading uncertain; also: printed as DFYKPMPNLRIT-GGG-C),–,505497 and 895713 and 688103 and 1.24E+06 and 1.03E+06,5335.62 and 16297.54 and 4781.15 and 12000.14 and 6924.34,1632050.00 and 894870.00 and 1335810.00 and 1304290.00 and 940933.00,47748.80 and 38144.50 and 144567.64 and 78101.02 and 94661.27
